Test results taken from patent publication US9521850B2 (University of Florida Research Foundation, Incorporated, priority 2012, dated 2016).
Values after ≈ are worked out from the molar mass of the structure shown.

Legend:
Experiment in all cases: microbe, parasite or virus in culture
[1] = system: Liberibacter crescens; format: cell-based
[2] = system: Rhizobium etli; format: cell-based
[3] = system: Bradyrhizobium japonicum; format: cell-based
[4] = system: Xanthomonas citri; format: cell-based, Xanthomonas citri subsp. citri
[5] = system: Mesorhizobium loti; format: cell-based
[6] = system: Sinorhizobium meliloti; format: cell-based
[7] = system: Agrobacterium tumefaciens; format: cell-based

Row | Compound | MBC ([1]; 24 h) [µg/mL] | MIC ([1]; 24 h) [µg/mL] | MBC ([1]; 120 h) [µg/mL] | MIC ([1]; 120 h) [µg/mL] | MBC ([2]; 24 hrs) [µg/mL] | MIC ([2]; 24 hrs) [µg/mL] | MBC ([2]; 120 hrs) [µg/mL] | MIC ([2]; 120 hrs) [µg/mL] | MBC ([3]; 24 hrs) [µg/mL] | MIC ([3]; 24 hrs) [µg/mL] | MBC ([3]; 120 hrs) [µg/mL] | MIC ([3]; 120 hrs) [µg/mL] | MBC [4] [µg/mL] | MIC [4] [µg/mL] | MBC [5] [µg/mL] | MIC [5] [µg/mL] | MBC [6] [µg/mL] | MIC [6] [µg/mL] | MBC [7] [µg/mL] | MIC [7] [µg/mL]
1 | CC(C)[C@H](NC(=O)c1c(F)cccc1F)C(=O)Nc1ccc(-n2cnnn2)cc1 [SA1, 2,6-Difluoro-N-[(2S)-3-methyl-1-oxo-1-{[4-(1H-tetrazol-1-yl)phenyl]amino}-2-butanyl] benzamide] | 16 (≈ 40 µM) | 16 (≈ 40 µM) | 32 (≈ 79.9 µM) | 32 (≈ 79.9 µM) | 32 (≈ 79.9 µM) | 16 (≈ 40 µM) | 64 (≈ 160 µM) | 32 (≈ 79.9 µM) | 16 (≈ 40 µM) | 16 (≈ 40 µM) | 32 (≈ 79.9 µM) | 32 (≈ 79.9 µM) | 128 (≈ 320 µM) | 64 (≈ 160 µM) | 32 (≈ 79.9 µM) | 16 (≈ 40 µM) | 32 (≈ 79.9 µM) | 16 (≈ 40 µM) | 64 (≈ 160 µM) | 32 (≈ 79.9 µM)
2 | Nc1c(C(=O)O)sc2nc(-c3ccccc3)cc(-c3ccc(F)cc3)c12 [SA2, 3-Amino-4-(4-fluorophenyl)-6-phenyl-thieno[2,3-b]pyridine-2-carboxylic acid] | 16 (≈ 43.9 µM) | 16 (≈ 43.9 µM) | 32 (≈ 87.8 µM) | 32 (≈ 87.8 µM) | 32 (≈ 87.8 µM) | 16 (≈ 43.9 µM) | 64 (≈ 176 µM) | 32 (≈ 87.8 µM) | 64 (≈ 176 µM) | 32 (≈ 87.8 µM) | 128 (≈ 351 µM) | 64 (≈ 176 µM) | 64 (≈ 176 µM) | 32 (≈ 87.8 µM) | 32 (≈ 87.8 µM) | 16 (≈ 43.9 µM) | 32 (≈ 87.8 µM) | 16 (≈ 43.9 µM) | 64 (≈ 176 µM) | 32 (≈ 87.8 µM)
3 | CC(C)[C@H](NC(=O)c1ccccc1)C(=O)Nc1cccc(-n2cnnn2)c1 [SA3, N-[(2S)-3-Methyl-1-oxo-1-{[3-(1H-tetrazol-1-yl)phenyl]amino}-2-butanyl] benzamide] | 16 (≈ 43.9 µM) | 8 (≈ 22 µM) | 32 (≈ 87.8 µM) | 16 (≈ 43.9 µM) | 32 (≈ 87.8 µM) | 32 (≈ 87.8 µM) | 64 (≈ 176 µM) | 64 (≈ 176 µM) | 32 (≈ 87.8 µM) | 16 (≈ 43.9 µM) | 64 (≈ 176 µM) | 32 (≈ 87.8 µM) | 128 (≈ 351 µM) | 64 (≈ 176 µM) | 32 (≈ 87.8 µM) | 16 (≈ 43.9 µM) | 64 (≈ 176 µM) | 32 (≈ 87.8 µM) | 64 (≈ 176 µM) | 32 (≈ 87.8 µM)
4 | O=C1CCCC2=C1[C@H](c1ccccc1)Nc1ccc(C(=O)c3ccccc3)cc1N2 [SA4, (11S)-7-Benzoyl-11-phenyl-2,3,4,5,10,11-hexahydro-1H-dibenzo[b,e] [1,4]diazepin-1-one] | 32 (≈ 81.1 µM) | 16 (≈ 40.6 µM) | 64 (≈ 162 µM) | 32 (≈ 81.1 µM) | 16 (≈ 40.6 µM) | 8 (≈ 20.3 µM) | 32 (≈ 81.1 µM) | 16 (≈ 40.6 µM) | 16 (≈ 40.6 µM) | 8 (≈ 20.3 µM) | 16 (≈ 40.6 µM) | 16 (≈ 40.6 µM) | 64 (≈ 162 µM) | 32 (≈ 81.1 µM) | 32 (≈ 81.1 µM) | 16 (≈ 40.6 µM) | 64 (≈ 162 µM) | 32 (≈ 81.1 µM) | 64 (≈ 162 µM) | 16 (≈ 40.6 µM)
5 | COc1ccc(C2Nc3ccc(C(=O)c4ccccc4)cc3NC3=C2C(=O)CC(c2ccccc2)C3)cc1 (centres unmarked) [SA5, 7-Benzoyl-11-(4-methoxy-phenyl)-3-phenyl-2,3,4,5,10,11-hexahydro-1H-dibenzo[b,e] [1,4]diazepin-1-one] | 16 (≈ 32 µM) | 8 (≈ 16 µM) | 32 (≈ 63.9 µM) | 16 (≈ 32 µM) | 16 (≈ 32 µM) | 16 (≈ 32 µM) | 32 (≈ 63.9 µM) | 32 (≈ 63.9 µM) | 16 (≈ 32 µM) | 16 (≈ 32 µM) | 32 (≈ 63.9 µM) | 32 (≈ 63.9 µM) | 128 (≈ 256 µM) | 64 (≈ 128 µM) | 32 (≈ 63.9 µM) | 16 (≈ 32 µM) | 64 (≈ 128 µM) | 32 (≈ 63.9 µM) | 64 (≈ 128 µM) | 32 (≈ 63.9 µM)
6 | O=C1CC(c2ccccc2)CC2=C1C(c1ccc(O)cc1)Nc1ccc(C(=O)c3ccccc3)cc1N2 (centres unmarked) [SA6, 7-Benzoyl-11-(4-hydroxy-phenyl)-3-phenyl-2,3,4,5,10,11-hexahydro-1H-dibenzo[b,e] [1,4]diazepin-1-one] | 16 (≈ 32.9 µM) | 16 (≈ 32.9 µM) | 64 (≈ 132 µM) | 32 (≈ 65.8 µM) | 32 (≈ 65.8 µM) | 32 (≈ 65.8 µM) | 64 (≈ 132 µM) | 64 (≈ 132 µM) | 32 (≈ 65.8 µM) | 16 (≈ 32.9 µM) | 32 (≈ 65.8 µM) | 32 (≈ 65.8 µM) | 128 (≈ 263 µM) | 64 (≈ 132 µM) | 32 (≈ 65.8 µM) | 16 (≈ 32.9 µM) | 32 (≈ 65.8 µM) | 32 (≈ 65.8 µM) | 64 (≈ 132 µM) | 16 (≈ 32.9 µM)
7 | CCOc1ccc(C2Nc3ccc(C(=O)c4ccccc4)cc3NC3=C2C(=O)CCC3)cc1 (centres unmarked) [SA7, 7-Benzoyl-11-(4-ethoxy-phenyl)-2,3,4,5,10,11-hexahydro-1H-dibenzo[b,e] [1,4]diazepin-1-one] | 16 (≈ 36.5 µM) | 16 (≈ 36.5 µM) | 32 (≈ 73 µM) | 32 (≈ 73 µM) | 16 (≈ 36.5 µM) | 16 (≈ 36.5 µM) | 32 (≈ 73 µM) | 32 (≈ 73 µM) | 32 (≈ 73 µM) | 32 (≈ 73 µM) | 32 (≈ 73 µM) | 32 (≈ 73 µM) | 64 (≈ 146 µM) | 32 (≈ 73 µM) | 32 (≈ 73 µM) | 16 (≈ 36.5 µM) | 32 (≈ 73 µM) | 16 (≈ 36.5 µM) | 64 (≈ 146 µM) | 16 (≈ 36.5 µM)
8 | O=C1CC(c2ccccc2)CC2=C1C(c1cccs1)Nc1ccc(C(=O)c3ccccc3)cc1N2 (centres unmarked) [SA8, 7-Benzoyl-3-phenyl-11-(2-thienyl)-2,3,4,5,10,11-hexahydro-1H-dibenzo[b,e] [1,4]diazepin-1-one] | 16 (≈ 33.6 µM) | 16 (≈ 33.6 µM) | 32 (≈ 67.1 µM) | 32 (≈ 67.1 µM) | 16 (≈ 33.6 µM) | 8 (≈ 16.8 µM) | 32 (≈ 67.1 µM) | 16 (≈ 33.6 µM) | 16 (≈ 33.6 µM) | 8 (≈ 16.8 µM) | 32 (≈ 67.1 µM) | 32 (≈ 67.1 µM) | 64 (≈ 134 µM) | 32 (≈ 67.1 µM) | 32 (≈ 67.1 µM) | 16 (≈ 33.6 µM) | 32 (≈ 67.1 µM) | 16 (≈ 33.6 µM) | 128 (≈ 269 µM) | 32 (≈ 67.1 µM)
9 | Cc1cc([C@H]2Nc3ccc(C(=O)c4ccccc4)cc3NC3=C2C(=O)CC(C)(C)C3)cc(C)c1O [SA9, 11-(4-hydroxy-3,5-dimethyl-phenyl)-3,3-dimethyl-7-(phenyl-carbonyl)-2,3,4,5,10,11-hexahydro-1H-dibenzo[b,e] [1,4]diazepin-1-one] | 16 (≈ 34.3 µM) | 16 (≈ 34.3 µM) | 64 (≈ 137 µM) | 32 (≈ 68.6 µM) | 16 (≈ 34.3 µM) | 8 (≈ 17.1 µM) | 32 (≈ 68.6 µM) | 16 (≈ 34.3 µM) | 32 (≈ 68.6 µM) | 16 (≈ 34.3 µM) | 64 (≈ 137 µM) | 32 (≈ 68.6 µM) | 64 (≈ 137 µM) | 32 (≈ 68.6 µM) | 32 (≈ 68.6 µM) | 16 (≈ 34.3 µM) | 32 (≈ 68.6 µM) | 16 (≈ 34.3 µM) | 64 (≈ 137 µM) | 32 (≈ 68.6 µM)
10 | COc1ccc(NC(=O)C2(N(C(=O)c3ccc(-n4cnnn4)cc3)c3ccc(OC)cc3)CCCCC2)cc1 [SSC8, N-(4-methoxy-phenyl)-N-{1-[(4-methoxy-phenyl)carbamoyl]cyclohexyl}-4-(1H-tetrazol-1-yl)benzamide] | 16 (≈ 30.4 µM) | 16 (≈ 30.4 µM) | 32 (≈ 60.8 µM) | 32 (≈ 60.8 µM) | 32 (≈ 60.8 µM) | 16 (≈ 30.4 µM) | 64 (≈ 122 µM) | 32 (≈ 60.8 µM) | 16 (≈ 30.4 µM) | 8 (≈ 15.2 µM) | 32 (≈ 60.8 µM) | 16 (≈ 30.4 µM) | 64 (≈ 122 µM) | 32 (≈ 60.8 µM) | 32 (≈ 60.8 µM) | 16 (≈ 30.4 µM) | 32 (≈ 60.8 µM) | 16 (≈ 30.4 µM) | 64 (≈ 122 µM) | 32 (≈ 60.8 µM)
